These compounds were tested against LRRK2 G2019S (Homo sapiens, UniProt Q5S007, G2019S) (assay: LRRK2 G2019S Km ATP LanthaScreen assay). Conditions: read-out: LRRK2 pIC50 (converted).
Format: biochemical

Chain of LRRK2 G2019S (Q5S007 whole entry G2019S): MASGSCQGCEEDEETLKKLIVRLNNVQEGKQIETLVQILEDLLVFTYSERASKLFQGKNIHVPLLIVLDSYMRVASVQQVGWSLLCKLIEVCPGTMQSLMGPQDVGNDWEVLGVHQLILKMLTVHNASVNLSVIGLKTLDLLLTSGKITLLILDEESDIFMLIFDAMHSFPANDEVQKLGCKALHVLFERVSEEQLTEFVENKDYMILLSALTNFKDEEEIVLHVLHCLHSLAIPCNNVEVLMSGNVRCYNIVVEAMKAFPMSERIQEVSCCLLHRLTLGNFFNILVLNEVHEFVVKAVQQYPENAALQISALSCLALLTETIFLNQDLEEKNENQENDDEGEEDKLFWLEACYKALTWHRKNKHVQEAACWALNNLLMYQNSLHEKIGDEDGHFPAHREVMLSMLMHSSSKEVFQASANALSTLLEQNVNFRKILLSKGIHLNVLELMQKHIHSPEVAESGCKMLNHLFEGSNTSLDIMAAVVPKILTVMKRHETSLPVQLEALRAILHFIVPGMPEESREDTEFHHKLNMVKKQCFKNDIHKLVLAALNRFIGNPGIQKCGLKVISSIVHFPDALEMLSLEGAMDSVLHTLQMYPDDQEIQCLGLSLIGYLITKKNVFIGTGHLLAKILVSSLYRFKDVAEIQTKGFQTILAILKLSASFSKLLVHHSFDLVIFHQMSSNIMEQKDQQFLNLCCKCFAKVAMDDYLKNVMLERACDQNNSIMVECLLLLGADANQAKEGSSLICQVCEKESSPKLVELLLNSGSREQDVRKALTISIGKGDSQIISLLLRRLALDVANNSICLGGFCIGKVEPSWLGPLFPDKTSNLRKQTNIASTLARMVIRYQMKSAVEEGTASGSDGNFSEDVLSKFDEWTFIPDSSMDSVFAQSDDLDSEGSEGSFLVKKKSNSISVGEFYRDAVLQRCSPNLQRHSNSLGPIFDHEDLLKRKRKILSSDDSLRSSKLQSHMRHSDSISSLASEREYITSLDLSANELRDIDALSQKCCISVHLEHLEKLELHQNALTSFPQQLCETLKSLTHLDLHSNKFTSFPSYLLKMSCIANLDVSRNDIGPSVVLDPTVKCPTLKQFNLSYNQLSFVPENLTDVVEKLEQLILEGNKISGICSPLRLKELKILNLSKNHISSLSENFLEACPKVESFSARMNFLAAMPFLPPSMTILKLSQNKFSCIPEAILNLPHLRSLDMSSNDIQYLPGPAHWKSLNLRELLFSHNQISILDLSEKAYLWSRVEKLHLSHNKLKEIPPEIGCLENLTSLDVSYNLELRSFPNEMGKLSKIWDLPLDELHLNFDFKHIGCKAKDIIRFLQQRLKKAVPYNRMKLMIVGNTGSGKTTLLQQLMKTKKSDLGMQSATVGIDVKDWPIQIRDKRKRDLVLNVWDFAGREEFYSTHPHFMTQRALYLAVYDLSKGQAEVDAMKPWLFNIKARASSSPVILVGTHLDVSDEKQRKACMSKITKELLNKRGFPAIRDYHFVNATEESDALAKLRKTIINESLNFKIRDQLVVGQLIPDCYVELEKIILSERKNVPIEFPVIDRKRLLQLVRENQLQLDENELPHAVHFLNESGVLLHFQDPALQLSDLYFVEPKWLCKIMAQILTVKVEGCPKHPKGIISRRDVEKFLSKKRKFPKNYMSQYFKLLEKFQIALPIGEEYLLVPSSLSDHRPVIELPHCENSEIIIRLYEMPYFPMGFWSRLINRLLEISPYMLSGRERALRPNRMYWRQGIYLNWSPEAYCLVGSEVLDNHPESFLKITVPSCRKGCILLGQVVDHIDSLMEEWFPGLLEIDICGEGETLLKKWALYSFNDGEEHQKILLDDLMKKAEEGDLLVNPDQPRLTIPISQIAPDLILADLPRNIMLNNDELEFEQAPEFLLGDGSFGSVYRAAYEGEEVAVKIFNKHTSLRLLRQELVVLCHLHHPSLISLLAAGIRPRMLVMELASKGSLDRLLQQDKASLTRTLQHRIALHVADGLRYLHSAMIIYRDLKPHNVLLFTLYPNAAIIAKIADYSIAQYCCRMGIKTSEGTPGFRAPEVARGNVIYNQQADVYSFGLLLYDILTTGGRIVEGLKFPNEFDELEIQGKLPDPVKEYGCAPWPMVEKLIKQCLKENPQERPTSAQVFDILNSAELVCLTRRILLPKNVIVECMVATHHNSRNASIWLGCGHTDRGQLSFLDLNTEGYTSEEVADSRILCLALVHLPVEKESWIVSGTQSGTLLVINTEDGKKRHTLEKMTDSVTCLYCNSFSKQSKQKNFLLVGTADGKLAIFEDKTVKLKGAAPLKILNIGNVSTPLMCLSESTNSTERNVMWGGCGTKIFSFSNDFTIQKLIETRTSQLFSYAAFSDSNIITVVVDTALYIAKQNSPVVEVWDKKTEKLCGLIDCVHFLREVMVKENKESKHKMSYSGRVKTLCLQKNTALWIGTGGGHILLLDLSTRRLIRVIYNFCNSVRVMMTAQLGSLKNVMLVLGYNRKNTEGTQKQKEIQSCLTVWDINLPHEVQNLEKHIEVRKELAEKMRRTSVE

Row | IC50 | SMILES
1 | 0.0813 nM | CC1(N2CCC(c3cc4cc(NC(=O)C5CC5c5ccco5)ncc4cc3Cl)CC2)COCC1O (single isomer, unassigned) [Ex-4.66, N-(7-chloro-6-(1-(4-hydroxy-3-methyltetrahydrofuran-3-yl)piperidin-4-yl)isoquinolin-3-yl)-2-(furan-2-yl)cyclopropane-1-carboxamide]
2 | 0.0813 nM | CC1C(C(=O)Nc2cc3cc(C4CCN(C5(C)COCC5F)CC4)c(Cl)cc3cn2)C1c1cnn(C)c1 (centres unmarked) [Ex-2.80]
3 | 28.8 nM | Cc1cc2cnc(NC(=O)C3CC3c3cnn(C)c3)cc2cc1C1CC12CC2 (single isomer, unassigned) [Ex-16.4, 2-(1-methyl-1H-pyrazol-4-yl)-N-(7-methyl-6-(spiro[2.2]pentan-1-yl)isoquinolin-3-yl)cyclopropane-1-carboxamide]
4 | 3020 nM | CC1(C)CCC(C(=O)Nc2cc3cc(C4CCC(N5CCC(F)C5)CC4)c(Cl)cc3cn2)CO1 (single isomer, unassigned) [Ex-5.23, N-(7-chloro-6-(4-(3-fluoropyrrolidin-1-yl)cyclohexyl)isoquinolin-3-yl)-6,6-dimethyltetrahydro-2H-pyran-3-carboxamide]
5 | 129 nM | CC1(N2CCC(c3cc4cc(NC(=O)C5CC5c5cccs5)ncc4cc3Cl)CC2)COCC1O (single isomer, unassigned) [Ex-4.59, N-(7-chloro-6-(1-(4-hydroxy-3-methyltetrahydrofuran-3-yl)piperidin-4-yl)isoquinolin-3-yl)-2-(thiophen-2-yl)cyclopropane-1-carboxamide]
6 | 3.55 nM | CC1(C)C(C(=O)Nc2cc3cc(C4CCN(C5(C)COCC5O)CC4)c(Cl)cc3cn2)C1c1ccccn1 (single isomer, unassigned) [Ex-4.46, N-(7-chloro-6-(1-(4-hydroxy-3-methyltetrahydrofuran-3-yl)piperidin-4-yl)isoquinolin-3-yl)-2,2-dimethyl-3-(pyridin-2-yl)cyclopropane-1-carboxamide]
7 | 0.407 nM | CC1(N2CCC(c3cc4cc(NC(=O)C5CC56CCC(F)(F)CC6)ncc4cc3Cl)CC2)COCC1O (centres unmarked) [Ex-2.16]
8 | 10.5 nM | N#CC1(c2ccc3cnc(NC(=O)C4CC45CCOC5)cc3c2)CC12CC2 (centres unmarked) [Ex-2.64]
9 | 0.0813 nM | CC1(N2CCC(c3cc4cc(NC(=O)C5CC5c5ccncc5)ncc4cc3Cl)CC2)COCC1O (single isomer, unassigned) [Ex-4.21, N-(7-chloro-6-(1-(4-hydroxy-3-methyltetrahydrofuran-3-yl)piperidin-4-yl)isoquinolin-3-yl)-2-(pyridin-4-yl)cyclopropane-1-carboxamide]
10 | 38.9 nM | Cc1cc2cnc(NC(=O)C3CC3c3ccccn3)cc2cc1C1CCN(C2(C)COCC2F)CC1 (single isomer, unassigned) [Ex-13.2, (1R,2R or 1S,2S)-N-(6-(1-((3R,4R or 3S,4S)-4-fluoro-3-methyltetrahydrofuran-3-yl)piperidin-4-yl)-7-methylisoquinolin-3-yl)-2-(pyridin-2-yl)cyclopropane-1-carboxamide]
11 | 3.24 nM | Cc1cc2cnc(NC(=O)C3CC3)cc2cc1C1CCN(C2(C)COC2)CC1 [Ex-15.1]
12 | 0.692 nM | CC1(N2CCC(c3cc4cc(NC(=O)C5CCC6(CCC6)OC5)ncc4cc3Cl)CC2)COCC1O (single isomer, unassigned) [Ex-4.24, N-(7-chloro-6-(1-(4-hydroxy-3-methyltetrahydrofuran-3-yl)piperidin-4-yl)isoquinolin-3-yl)-5-oxaspiro[3.5]nonane-7-carboxamide]
13 | 5.89 nM | O=C(Nc1cc2cc(C3CCN(C4COC4)CC3F)c(Cl)cc2cn1)C1CC1 (single isomer, unassigned) [Ex-14.1, N-(7-chloro-6-((3R,4R,3S,4R,3R,4S or 3S,4S)-3-fluoro-1-(oxetan-3-yl)piperidin-4-yl)isoquinolin-3-yl)cyclopropanecarboxamide]
14 | 5.62 nM | CC1OCCC1N1CCC(c2cc3cc(NC(=O)C4CC4)ncc3cc2Cl)CC1 (single isomer, unassigned) [Ex-9.9, N-(7-chloro-6-(1-(2-methyltetrahydrofuran-3-yl)piperidin-4-yl)isoquinolin-3-yl)cyclopropanecarboxamide]
15 | 186 nM | O=C(Nc1cc2cc(C3CCC(N4CC(F)C4)CC3)c(Cl)cc2cn1)C1CC12CCOCC2 (single isomer, unassigned) [Ex-11.5, N-(7-chloro-6-(4-(3-fluoroazetidin-1-yl)cyclohexyl)isoquinolin-3-yl)-6-oxaspiro[2.5]octane-1-carboxamide]
16 | 10.2 nM | Cn1cc(N2CCC(C(=O)Nc3cc4cc(C5(C#N)CC56CC6)ccc4cn3)C2)cn1 (centres unmarked) [Ex-2.77]

Row | IC50 | SMILES
17 | 27.5 nM | Cn1cc(C(C)(C)C(=O)Nc2cc3cc(C4CCN(C5(C)COCC5F)CC4)c(Cl)cc3cn2)cn1 (single isomer, unassigned) [Ex-6.54, N-(7-chloro-6-(1-(4-fluoro-3-methyltetrahydrofuran-3-yl)piperidin-4-yl)isoquinolin-3-yl)-2-methyl-2-(1-methyl-1H-pyrazol-4-yl)propenamide]
18 | 0.0813 nM | Cc1cc2cnc(NC(=O)C3CC3c3ccccn3)cc2cc1C1CCN(C2(C)CCOC2)CC1 (single isomer, unassigned) [Ex-16.10, N-(7-methyl-6-(1-(3-methyltetrahydrofuran-3-yl)piperidin-4-yl)isoquinolin-3-yl)-2-(pyridin-2-yl)cyclopropane-1-carboxamide]
19 | 0.275 nM | O=C(Nc1cc2cc(C3CCC(N4CC(F)(F)C4)CC3)c(Cl)cc2cn1)C1CC1c1ccccn1 (single isomer, unassigned) [Ex-5.5, N-(7-chloro-6-(4-(3,3-difluoroazetidin-1-yl)cyclohexyl)isoquinolin-3-yl)-2-(pyridin-2-yl)cyclopropane-1-carboxamide]
20 | 200 nM | CC1(N2CCC(c3cc4cc(NC(=O)C5CC5c5cccnc5)ncc4cc3Cl)CC2)COCC1O (single isomer, unassigned) [Ex-4.42, N-(7-chloro-6-(1-(4-hydroxy-3-methyltetrahydrofuran-3-yl)piperidin-4-yl)isoquinolin-3-yl)-2-(pyridin-3-yl)cyclopropane-1-carboxamide]
21 | 0.427 nM | CC1(C)CCC(C(=O)Nc2cc3cc(C4CCN(C5(C)COCC5O)CC4)c(Cl)cc3cn2)CO1 (single isomer, unassigned) [Ex-4.26, N-(7-chloro-6-(1-(4-hydroxy-3-methyltetrahydrofuran-3-yl)piperidin-4-yl)isoquinolin-3-yl)-6,6-dimethyltetrahydrofuran-2H-pyran-3-carboxamide]
22 | 110 nM | O=C(Nc1cc2cc(C3CCC(N4CC(F)(F)C4)CC3)c(Cl)cc2cn1)C1CC1c1ccccn1 (single isomer, unassigned) [Ex-5.3, N-(7-chloro-6-(4-(3,3-difluoroazetidin-1-yl)cyclohexyl)isoquinolin-3-yl)-2-(pyridin-2-yl)cyclopropane-1-carboxamide]
23 | 3.31 nM | Cn1ccc(C2CC2C(=O)Nc2cc3cc(C4(C#N)CC45CC5)ccc3cn2)n1 (centres unmarked) [Ex-2.72]
24 | 3.39 nM | CC(C)(O)C1CC(C(=O)Nc2cc3cc(C4(C#N)CC45CC5)ccc3cn2)C1 (single isomer, unassigned) [Ex-1.26, (1R,3R or 1S,3S)-N-(6-((R or S)-1-cyanospiro[2.2]pentan-1-yl)isoquinolin-3-yl)-3-(2-hydroxypropan-2-yl)cyclobutane-1-carboxamide]
25 | 24 nM | CC(C)OC1CCC(C(=O)Nc2cc3cc(C4(C#N)CC45CC5)ccc3cn2)OC1 (single isomer, unassigned) [Ex-1.28, N-(6-((R or S)-1-cyanospiro[2.2]pentan-1-yl)isoquinolin-3-yl)-5R or 5S-isopropoxytetrahydro-2H-pyran-2R-carboxamide]
26 | 0.398 nM | CC1(N2CCC(c3cc4cc(NC(=O)C5C6CCCOC65)ncc4cc3Cl)CC2)COCC1O (single isomer, unassigned) [Ex-4.12, N-(7-chloro-6-(1-(4-hydroxy-3-methyltetrahydrofuran-3-yl)piperidin-4-yl)isoquinolin-3-yl)-2-oxabicyclo[4.1.0]heptane-7-carboxamide]
27 | 0.0813 nM | COC1COCC1(C)N1CCC(c2cc3cc(NC(=O)C4CC45CCOCC5)ncc3cc2Cl)CC1 (single isomer, unassigned) [Ex-6.22, N-(7-chloro-6-(1-(4-methoxy-3-methyltetrahydrofuran-3-yl)piperidin-4-yl)isoquinolin-3-yl)-6-oxaspiro[2.5]octane-1-carboxamide]
28 | 4.07 nM | O=C(Nc1cc2cc(C3CCN(C4COC4)CC3F)c(Cl)cc2cn1)C1CC1 (single isomer, unassigned) [Ex-14.2, N-(7-chloro-6-((3R,4R,3S,4R,3R,4S or 3S,4S)-3-fluoro-1-(oxetan-3-yl)piperidin-4-yl)isoquinolin-3-yl)cyclopropanecarboxamide]
29 | 46.8 nM | COC1CCC(C(=O)Nc2cc3cc(C4CCN(C5(C)COCC5O)CC4)c(Cl)cc3cn2)CC1 (single isomer, unassigned) [Ex-10.2, 1,4-trans, (3R,4R)- or 1,4-trans, (3S,4S)- or 1,4-cis, (3R,4R)- or 1,4-cis, (3S,4S)-N-(7-chloro-6-(1-(4-hydroxy-3-methyltetrahydrofuran-3-yl)piperidin-4-yl)isoquinolin-3-yl)-4-methoxycyclohexane-1-carboxamide]
30 | 22.4 nM | CC(C)n1nccc1C1CC1C(=O)Nc1cc2cc(C3CCN(C4(C)COCC4O)CC3)c(Cl)cc2cn1 (single isomer, unassigned) [Ex-4.63, N-(7-chloro-6-(1-(4-hydroxy-3-methyltetrahydrofuran-3-yl)piperidin-4-yl)isoquinolin-3-yl)-2-(1-isopropyl-1H-pyrazol-5-yl)cyclopropane-1-carboxamide]
31 | 0.0813 nM | Cc1noc(C2CC2C(=O)Nc2cc3cc(C4CCN(C5(C)COCC5O)CC4)c(Cl)cc3cn2)n1 (single isomer, unassigned) [Ex-4.15, N-(7-chloro-6-(1-(4-hydroxy-3-methyltetrahydrofuran-3-yl)piperidin-4-yl)isoquinolin-3-yl)-2-(3-methyl-1,2,4-oxadiazol-5-yl)cyclopropane-1-carboxamide]
32 | 11.7 nM | CN1CCO[C@@H](C(=O)Nc2cc3cc(C4(C#N)CC45CC5)ccc3cn2)C1 (single isomer, unassigned) [Ex-1.31, (2R)-N-(6-((R or S)-1-cyanospiro[2.2]pentan-1-yl)isoquinolin-3-yl)-4-methylmorpholine-2-carboxamide]
